Measurements from US11884673B2, “Modulators of ion channel receptors and uses thereof” (BIONOMICS LIMITED, priority 2018, dated 2024).

Biological target: T1, hNav1.7 (Homo sapiens, UniProt Q15858)
T1 construct: expressed in transfected cells
Assay: hNav1.7 inactivated state (SIS) automated patch clamp electrophysiology (Patchliner, whole-cell)
Assay type: cell-based
Conditions: inactivated state protocol, hNav1.7 stably expressed in human embryonic kidney cells; for IC50: estimated eIC50 from 2-3 drug concentrations; for inhibition at 10 µM: Assay Conc. 10 uM, read-out: hNav1.7 SIS (% inh)
Procedure: hNav1.7, hNav1.2, hNav1.3, hNav1.4, hNav1.5, hNav1.6 were stably expressed in human embryonic kidney cells and kept under constant antibiotic selection. For in vitro assays, cells were maintained in appropriate growth medium at 37° C. and 5% CO2 in a humidified incubator.
Nav1.x expressing cells plated in T-25 flasks for 2-3 days prior to use and grown to 70-85% confluence were briefly trypsinized to obtain a single cell suspension of ˜2-3×10^6 cells/ml. All electrophysiological recordings were performed at ambient temperature (21-23° C.) using automated patch clamp (Patchliner, Nanion Technologies GmbH) in the whole-cell configuration using the following solutions: Internal solution contained (in mM): CsCl (50), NaCl (10), CsF (60), EGTA (20), HEPES (10), pH 7.2 KOH, 285 mOsmol·Kg^−1. External (bath) solution contained (in mM): NaCl (140), KCl (4), MgCl2 (1), CaCl2) (2) D-Glucose monohydrate (5), HEPES (10), pH 7.4 NaOH, 298 mOsmol·kg^−1.
The following voltage protocols were used to assess different Nav1.x channel states:
For each Nav1.x channel, a steady state inactivation curve was obtained in order to calculate the voltage resulting in 50% channel inactivation (V0.5inact). A 2 pulse protocol was then employed in which cells held at a voltage corresponding to 20 mV more negative to V0.5 inact were depolarised to −10 mV for 20 ms before returning to the previous holding voltage. This test pulse constituted P1 and represents 100% available (non-inactivated) Nav1.x channels. The same cell was then depolarised for 8 s to a voltage corresponding to 7 mV more positive than V0.5inact in order to cause channel inactivation. Following a brief (2 ms) hyperpolarising voltage step to −120 mV (to reset the activation gate), cells were again subjected to a depolarising test pulse (P2) to −10 mV for 20 ms before returning to the holding potential. Each sequence was repeated 6× at 30 s intervals. Using this protocol, control P2 current amplitudes (representing the % channels available following 8 s inactivation) was ˜50% of control P1 current amplitude. 6 repetitions of this recording sequence were made in the control bath solution and then again 2 minutes after compound addition and thereafter at increasing compound concentrations. % inhibition was calculated by (1−(P2drug at repetition 6/P2control at repetition 6))*100. Data were either presented as % block by a single concentration of drug or an estimated eIC50 determined from 2-3 drug concentrations which was determined by fitting data with a sigmoidal dose response curve (variable slope) using GraphPad Prism software (Version 6.0).
All compounds were dissolved in DMSO to 20 mM initially. Subsequent dilutions in DMSO were made to achieve 200× final bath concentrations. DMSO compound stocks were finally diluted 1/200 in bath solution just prior to assay resulting in a final DMSO concentration of 0.5% which was not found to affect control current amplitude.

T1 sequence (Q15858 whole entry): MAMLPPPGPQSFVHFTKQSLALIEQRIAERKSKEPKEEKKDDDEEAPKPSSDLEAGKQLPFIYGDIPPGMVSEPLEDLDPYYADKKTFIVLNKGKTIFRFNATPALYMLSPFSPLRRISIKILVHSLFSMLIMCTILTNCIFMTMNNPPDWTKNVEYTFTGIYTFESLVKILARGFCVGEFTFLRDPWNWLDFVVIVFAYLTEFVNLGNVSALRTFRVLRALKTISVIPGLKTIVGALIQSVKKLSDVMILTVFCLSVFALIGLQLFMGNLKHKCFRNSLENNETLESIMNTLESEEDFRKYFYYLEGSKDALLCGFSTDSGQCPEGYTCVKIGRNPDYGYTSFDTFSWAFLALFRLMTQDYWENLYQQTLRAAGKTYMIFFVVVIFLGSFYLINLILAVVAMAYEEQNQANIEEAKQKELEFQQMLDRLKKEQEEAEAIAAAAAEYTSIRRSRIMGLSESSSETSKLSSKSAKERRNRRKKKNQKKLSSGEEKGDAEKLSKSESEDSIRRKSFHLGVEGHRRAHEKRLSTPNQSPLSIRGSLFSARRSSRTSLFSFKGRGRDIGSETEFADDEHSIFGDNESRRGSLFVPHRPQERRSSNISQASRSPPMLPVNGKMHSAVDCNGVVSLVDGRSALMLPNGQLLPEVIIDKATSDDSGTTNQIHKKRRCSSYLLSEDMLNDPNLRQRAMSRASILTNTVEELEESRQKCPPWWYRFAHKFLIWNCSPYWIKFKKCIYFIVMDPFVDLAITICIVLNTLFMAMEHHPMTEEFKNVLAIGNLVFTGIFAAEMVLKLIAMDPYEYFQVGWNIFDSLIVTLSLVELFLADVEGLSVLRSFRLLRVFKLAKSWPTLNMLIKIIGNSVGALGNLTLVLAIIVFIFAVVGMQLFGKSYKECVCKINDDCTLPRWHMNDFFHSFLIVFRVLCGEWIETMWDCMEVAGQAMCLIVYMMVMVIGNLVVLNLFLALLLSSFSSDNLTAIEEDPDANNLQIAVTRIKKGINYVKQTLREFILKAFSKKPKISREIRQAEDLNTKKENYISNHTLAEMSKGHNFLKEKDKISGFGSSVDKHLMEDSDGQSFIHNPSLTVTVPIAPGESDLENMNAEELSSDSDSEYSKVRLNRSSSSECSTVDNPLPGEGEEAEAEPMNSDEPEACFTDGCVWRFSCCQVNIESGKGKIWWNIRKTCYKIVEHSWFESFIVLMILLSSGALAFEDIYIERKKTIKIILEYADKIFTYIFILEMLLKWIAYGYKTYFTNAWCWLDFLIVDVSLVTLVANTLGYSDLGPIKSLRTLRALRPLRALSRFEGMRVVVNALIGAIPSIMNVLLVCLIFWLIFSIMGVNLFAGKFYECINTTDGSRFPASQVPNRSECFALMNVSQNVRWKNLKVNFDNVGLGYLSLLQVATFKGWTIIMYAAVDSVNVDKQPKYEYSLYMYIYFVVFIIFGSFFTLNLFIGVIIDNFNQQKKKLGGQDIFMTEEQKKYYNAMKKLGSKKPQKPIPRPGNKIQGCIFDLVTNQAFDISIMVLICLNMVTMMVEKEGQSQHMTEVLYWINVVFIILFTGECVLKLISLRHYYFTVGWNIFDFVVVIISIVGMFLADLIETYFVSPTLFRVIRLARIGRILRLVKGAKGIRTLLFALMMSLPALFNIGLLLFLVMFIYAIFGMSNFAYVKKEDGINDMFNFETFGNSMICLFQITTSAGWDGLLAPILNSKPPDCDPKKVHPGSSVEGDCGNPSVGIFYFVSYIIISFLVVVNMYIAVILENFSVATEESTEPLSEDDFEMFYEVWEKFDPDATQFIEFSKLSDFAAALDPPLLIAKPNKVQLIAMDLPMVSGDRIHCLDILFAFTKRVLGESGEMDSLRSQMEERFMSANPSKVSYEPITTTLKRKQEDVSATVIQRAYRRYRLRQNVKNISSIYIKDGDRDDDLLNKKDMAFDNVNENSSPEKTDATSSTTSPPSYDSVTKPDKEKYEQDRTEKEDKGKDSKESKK

Compound | IC50 [µM] | inhibition at 10 µM [%]
O=C(NCc1cc(OCC2CCCCC2)ccc1F)c1ccn2ccnc2c1 [Number 1] | 0.41 | 
O=C(NCc1cccc(OCc2ccccc2F)c1)c1nccn2ccnc12 [Number 2] | 1.3 | 
O=C(NCc1cccc(OCc2ccccc2F)c1)c1cccn2ccnc12 [Number 3] | 2.7 | 
O=C(NCc1cc(OCc2ccccc2F)ccc1F)c1cccn2cnnc12 [Number 4] | 1.1 | 
O=C(NCc1cc(OCc2ccccc2F)ccc1F)c1ccn2ccnc2c1 [Number 5] | 1.3 | 
O=C(NCc1cc(OCC2CCCCC2)ccc1F)c1cccn2cnnc12 [Number 6] | 0.13 | 
CC(C)(NC(=O)c1cccn2cnnc12)c1cccc(OCC2CCCCC2)c1 [Number 7] | 4.8 | 
O=C(NCc1cccc(OCC2CCCCC2)c1)c1cccn2cnnc12 [Number 8] | 0.91 | 
O=C(NCc1cccc(OCc2ccccc2F)c1)c1ccn2ccnc2c1 [Number 9] | 8.9 | 
O=C(NCc1cccc(OCc2ccccc2F)c1)c1cccn2cnnc12 [Number 10] | 3.3 | 
CC(C)(NC(=O)c1ccn2ccnc2c1)c1cccc(OCc2ccccc2F)c1 [Number 11] |  | 45
CC(C)(NC(=O)c1ccn2ccnc2c1)c1cccc(OCC2CCCCC2)c1 [Number 12] | 0.51 | 
O=C(NCc1cc(OCc2ccccc2F)ccc1F)c1nccn2ccnc12 [Number 48] |  | 100
O=C(NCc1cc(OCc2ccccc2F)ccc1F)c1cccc2nncn12 [Number 49] |  | 38
O=C(NCc1cccc(OCc2ccccc2F)c1)c1cccc2ccnn12 [Number 50] |  | 80
CC(C)(Oc1cccc(CNC(=O)c2cccn3cnnc23)c1)c1ccccc1F [Number 51] |  | 36
CC(C)(Oc1cccc(CNC(=O)c2cccn3ccnc23)c1)c1ccccc1F [Number 52] |  | 83
COC[C@@H](C)N(Cc1cccc(OCc2ccccc2F)c1)C(=O)c1cn2ccccc2n1 [Number 53] |  | 74
COC[C@H](C)N(Cc1cccc(OCc2ccccc2F)c1)C(=O)c1cn2ccccc2n1 [Number 54] |  | 55
Cn1ccc(C(=O)NCc2cc(OCc3ccccc3F)ccc2F)cc1=O [Number 55] |  | 49
O=C(NCc1cc(OCc2ccccc2F)ccc1F)c1cn2ccccc2n1 [Number 56] | 2.2 | 
Cn1cccc(C(=O)NCc2cccc(OCc3ccccc3F)c2)c1=O [Number 57] |  | 53
Cn1cccc(C(=O)NCc2cc(OCc3ccccc3F)ccc2F)c1=O [Number 58] |  | 52
O=C(NCc1cc(OCc2ccccc2F)ccc1F)c1cn2cccnc2n1 [Number 59] |  | 42
O=C(NCc1cccc(OCc2ccccc2F)c1)c1cccc2cncn12 [Number 60] |  | 49
CN(Cc1cccc(OCc2ccccc2F)c1)C(=O)c1cn2ccccc2n1 [Number 61] | 1.6 | 
O=C(NCc1cccc(OCc2ccccc2F)c1)c1cn2ncccc2n1 [Number 62] |  | 50

Compound | IC50 [µM] | inhibition at 10 µM [%]
O=C(NCc1cccc(OCc2ccccc2F)c1)c1cn2cccnc2n1 [Number 63] |  | 42
O=C(NCc1cccc(OCc2ccccc2F)c1)c1cccc2ncnn12 [Number 64] |  | 48
O=C(NCc1cc(OCc2ccccc2F)ccc1F)c1cccc2ncnn12 [Number 65] | 10 | 
Cn1ccc(C(=O)NCc2cccc(OCc3ccccc3F)c2)cc1=O [Number 66] |  | 30
O=C(NCc1cccc(OCc2ccccc2F)c1)c1cn2ccncc2n1 [Number 67] |  | 34
O=C(NCc1cc(OCc2ccccc2F)ccc1F)c1cn2ncccc2n1 [Number 68] |  | 53
O=C(NCc1cccc(OCc2ccccc2F)c1)c1cc2cccn2cn1 [Number 69] |  | 92
O=C(NCc1cccc(OCc2ccccc2F)c1)c1ccn2cnnc2c1 [Number 70] |  | 66
Cc1cn2ccc(C(=O)NCc3cccc(OCc4ccccc4F)c3)cc2n1 [Number 71] |  | 66
Cc1cn2ccc(C(=O)NCc3cc(OCc4ccccc4F)ccc3F)cc2n1 [Number 72] |  | 100
O=C(NCc1cccc(OCc2ccccc2F)c1)c1cnc2ccccn12 [Number 73] |  | 47
O=C(NCc1cc(OCc2ccccc2F)ccc1F)c1ccn2cnnc2c1 [Number 74] |  | 58
Cn1cc(CC(=O)NCc2cccc(OCc3ccccc3F)c2)c2ccccc21 [Number 75] |  | 74
O=C(Cc1cn2ccccc2n1)NCc1cccc(OCc2ccccc2F)c1 [Number 76] |  | 44
O=C(NCc1cccc(OCc2ccccc2F)c1)c1cccn2ncnc12 [Number 77] |  | 70
O=C(NCc1cc(OCc2ccccc2F)ccc1F)c1cccn2ncnc12 [Number 78] |  | 83
O=C(NCc1cccc(OCc2ccccc2F)c1)c1cccn2nnnc12 [Number 79] |  | 42
O=C(NCc1cccc(OCc2ccccc2F)c1)c1ccn2ncnc2c1 [Number 80] |  | 30
O=C(NCc1cc(OCc2ccccc2F)ccc1F)c1cccn2nnnc12 [Number 81] |  | 88
O=C(NCc1cc(OCc2ccccc2F)ccc1F)c1ccn2ncnc2c1 [Number 82] |  | 42
Cc1cnc2cc(C(=O)NCc3cccc(OCc4ccccc4F)c3)ccn12 [Number 83] |  | 59
O=C(NCc1cccc(OCc2ccccc2F)c1)c1ccc2cncn2c1 [Number 84] |  | 45
O=C(NCc1cc(OCc2ccccc2F)ccc1F)c1ccc2cncn2c1 [Number 85] |  | 55
O=C(NCc1cccc(OCc2ccccc2F)c1)c1cccn2cncc12 [Number 86] |  | 92
O=C(NCc1cc(OCc2ccccc2F)ccc1F)c1cccn2cncc12 [Number 87] |  | 66
O=C(NCc1cccc(OCc2ccccc2F)c1)c1ccc2nncn2c1 [Number 88] |  | 49
O=C(NCc1cc(OCc2ccccc2F)ccc1F)c1cccn2ccnc12 [Number 89] |  | 99
